Data reported in patent US20240261429A1, “CPMV BINDING PEPTIDE” (The Regents of the University of California, priority 2021, published 2024).
Primed or numbered codes have the meaning given here. Ends that are not written are not given here. Peptide text beside a SMILES is read from it. * marks the point of attachment. FITC = O=C1OC2(c3ccc(O)cc3Oc3cc(O)ccc32)c2ccc(NC(=S)*)cc21; Biotin = O=C1N[C@H]2[C@H](CS[C@H]2CCCCC(=O)*)N1; FITC′ = fluorescein isothiocyanate

What was measured:
CPMV [1] = experiment: Competitive ELISA between synthetic CBP peptides and monoclonal phage MPSEF; type: binding, Cowpea mosaic virus; conditions: for Kd: competition binding ELISA against MPSEF, read-out: dissociation constant KD
Description: 5 μg of CPMV (in 0.1 M bicarbonate buffer, pH 8.6) was coated into each well of a Nunc Maxisorp™ flat-bottom 96-well plate and incubated overnight at 4° C. 2% (w/v) BSA was also coated to serve as negative control. Next day, the plate was blocked with 2% (w/v) BSA and incubated at rt with shaking at 800 rpm for 1 h. Subsequently, the plate was washed thrice with 0.1% TBST for 1 min. 100 μL of amplified phage from the last biopanning cycle was added into each well followed by incubation at rt with shaking at 800 rpm for 1 h. Later, the plate was washed thrice with 0.5% TBST for 5 min. 100 μL of 1:500 dilution of HRP-conjugated anti-M monoclonal antibody (Abcam ab50370) was added and incubated at rt for 1 h with shaking at 8 rpm. The plate was again washed thrice with 0.5% TBST for 5 min followed by adding 100 μL of tetramethylbenzidine (TMB) substrate (Thermo Scientific Pierce) into each well. The plate was incubated at dark for 10 min and the absorbance was measured at 370 nm using an Infinite 200 Rx plate reader (Tecan Life Sciences) with 25 flashes in 96-well flat-bottom plate mode. Monoclonal phages with at least 0.3 difference in absorbance value between CPMV and BSA were subjected for DNA sequencing (Eurofins Genomics).
Competitive ELISA was performed as mentioned in ‘Monoclonal ELISA’ with modifications. Two-fold serial dilutions of CPMV peptide (0.500 μg, 0.250 μg, 0.125 μg, 0.063 μg, 0.031 μg, 0.016 μg, 0.008 μg, 0.004 μg, 0.002 μg) were added separately into the well together with 10^9 pfu of monoclonal phages. The reaction after incubation with TMB substrate was stopped with 50 μL of 2 N H2SO4. Colorimetric detection was carried out by measurement at 450 nm using an Infinite 200 Rx plate reader (Tecan Life Sciences) with 25 flashes in 96-well flat-bottom plate mode.
To determine the dissociation constant KD, competition binding ELISAs were set up. Here binding of synthetic CBPs (used in a dilution series) to CPMV was competed against MPSEF (used as constant amount). Phage MPSEF was detected by HRP-conjugated anti-M13 monoclonal antibody and measured at OD450 nm. CPMV bound MPSEF (OD450 nm) is inversely proportionate to the amount of peptide loaded for competition. The amount of MPSEF binding to CPMV reduced with the increasing amount of synthetic peptides, subsequently yielded lower absorbance value (FIG. 4G and FIG. 4H). […] Different modes of peptide modification resulted different IC50 and KD values despite having the exact same sequence.

[2] = tested on: CPMV coat proteins (S and L protein); experiment: Modified western blot of CBP-biotin on denatured CPMV coat proteins; type: binding, Cowpea mosaic virus; conditions: denatured S and L protein on nitrocellulose, streptavidin HRP (FIG. 3C)
Description: 10 μg of CPMV was loaded onto a NuPage™ 12% bis-tris gel (Thermo Fisher Scientific) and electrophoresed for 40 min at 200 V. Proteins were then blotted onto Amersham Protran 0.45 Nitrocellulose membrane (GE Healthcare) at 25 V for 2 h. The membrane was then blocked with 5% (w/v) BSA for 1 h at rt with gentle shaking. Subsequently, the membrane was washed thrice with 0.5% TBST for 1 min. 1 μg/mL of CPMV-biotin peptide was added to the membrane for 1 h incubation at rt. The membrane was then washed with 0.5% TBST for min. 100 μL of 1:500 dilution of HRP-conjugated anti-streptavidin monoclonal antibody (Abcam ab7403) was added and incubated at rt for 1 h. Following three washes with 0.5% TBST, the membrane was developed with DAB substrate kit, peroxidase HRP (Vector Laboratories) for 5-10 min. The DAB reagent was drained off and the bands were documented with ProteinSimple FluorChem®.

CPMV [3] = experiment: Peptide ELISA of CBP-biotin on streptavidin plate; type: binding, Cowpea mosaic virus; conditions: 5 μg CPMV, vs. control without CPMV, p<0.0001 (FIG. 4E)
Description: The plate was blocked with 2% (w/v) BSA followed by three washings with 0.1% TBST for 1 min per wash. 5 μg of CPMV was added for binding and incubated for 1 h at rt with shaking at 8 rpm. Then the plate was washed thrice with 0.5% TBST for 5 min each wash. 100 μL of anti-CPMV rabbit polyclonal antibodies (1:500 dilution) was added to the wells followed by incubation at rt for 1 h with shaking at 800 rpm. Following three washing steps using 0.5% TBST for 5 min, 100 μL of HRP conjugated goat anti-rabbit antibodies (1:5000 dilution; Pacific Immunology) was added to the wells and incubated at rt for 1 h with shaking at 800 rpm. Finally, the plate was washed thrice with 0.5% TBST followed by adding 100 μL of TMB substrate (Thermo Scientific Pierce) into each well. The plate was incubated in the dark for 5-10 min and the reaction was stopped with 50 μL of 2N H2SO4. Absorbance was measured at 450 nm using an Infinite 200 Rx plate reader (Tecan Life Sciences) with 25 flashes in 96-well flat-bottom plate mode.
Next, Applicant performed a series of enzyme-linked immunosorbent assays (ELISAs) using the CBP-FITC and CBP-biotin to further probe their binding affinity to CPMV. CBP-biotin was coated onto a streptavidin-functionalized plate, this was followed by incubation with CPMV (CPMV was omitted for the control) (FIG. 4E). […]

p185HER2/neu = p185HER2/neu (Homo sapiens, UniProt P04626); conditions: binding to p185HER2/neu; cited from earlier work
CPMV [4] = experiment: Native agarose gel electrophoresis of FITC peptides with CPMV; type: binding, Cowpea mosaic virus; conditions: 1.2% agarose gel after dual-purification
Description: 10 μg of FITC peptide conjugated CPMV was loaded onto a 1.2% (w/v) TAE agarose gel. 10 μg of CPMV and 1 μg of free CPMV-FITC peptide was loaded as control. The samples were electrophoresed at 110 V for 40 min.
The dual functional CBP-AHNP peptide was synthesized by fusing AHNP to the C-terminus of the CBP domain. A control peptide (*AHNP) without the CBP domain was also synthesized; both peptides were modified with a FITC label at their C terminus. CPMV-CBP-AHNP and controls were characterized by native agarose gel electrophoresis as described above.

[5] = target: T1, Cowpea mosaic virus (CPMV) (Cowpea mosaic virus), P03599; experiment: from competition binding ELISA against MPSEF phage on coated CPMV
T1 chain 1: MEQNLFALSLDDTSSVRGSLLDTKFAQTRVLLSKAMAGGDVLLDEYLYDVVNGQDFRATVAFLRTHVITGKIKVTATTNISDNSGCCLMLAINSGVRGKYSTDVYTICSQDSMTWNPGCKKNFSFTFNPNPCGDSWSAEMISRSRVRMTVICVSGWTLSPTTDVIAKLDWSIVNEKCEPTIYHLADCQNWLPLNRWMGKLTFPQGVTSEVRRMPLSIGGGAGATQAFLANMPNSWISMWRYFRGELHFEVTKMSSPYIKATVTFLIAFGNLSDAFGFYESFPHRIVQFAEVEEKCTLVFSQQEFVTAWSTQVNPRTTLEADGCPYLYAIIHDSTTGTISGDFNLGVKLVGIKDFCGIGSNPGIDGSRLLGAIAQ
T1 chain 2: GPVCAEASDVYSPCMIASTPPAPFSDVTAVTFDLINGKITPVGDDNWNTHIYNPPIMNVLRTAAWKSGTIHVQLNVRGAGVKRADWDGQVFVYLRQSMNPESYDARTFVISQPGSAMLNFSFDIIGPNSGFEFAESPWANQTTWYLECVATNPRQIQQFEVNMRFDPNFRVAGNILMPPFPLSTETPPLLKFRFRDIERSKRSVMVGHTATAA

[6] = target: T1, Cowpea mosaic virus (CPMV) (Cowpea …); experiment: UV/visible spectroscopy of the purified complex (500-molar excess of peptide)
[7] = target: T1, Cowpea mosaic virus (CPMV) (Cowpea …); experiment: competitive ELISA against MPSEF phage (10^9 pfu) on coated CPMV
[8] = peptide dilution series competed against constant MPSEF phage for CPMV, OD450 nm

CC(C)[C@H](NC(=O)[C@H](CCCNC(=N)N)NC(=O)[C@H](Cc1c[nH]c2ccccc12)NC(=O)CN)C(=O)N[C@@H](CO)C(=O)N[C@@H](CCC(=O)O)C(=O)N[C@@H](Cc1ccccc1)C(=O)NCC(=O)NCC(=O)NCC(=O)N[C@@H](CO)C(=O)N[C@@H](CCCCNC(=S)Nc1ccc2c(c1)C(=O)OC21c2ccc(O)cc2Oc2cc(O)ccc21)C(=O)O [CBP-FITC] (H-GWRVSEFGGGSK(FITC)-OH; N-terminus and C-terminus assumed)
Kd (CPMV [1]): ~700 nM
half maximal inhibition concentration (IC50) (CPMV [1]; [8]): 0.56 µg

CC(C)[C@H](NC(=O)[C@H](CCCNC(=N)N)NC(=O)[C@H](Cc1c[nH]c2ccccc12)NC(=O)CN)C(=O)N[C@@H](CO)C(=O)N[C@@H](CCC(=O)O)C(=O)N[C@@H](Cc1ccccc1)C(=O)NCC(=O)NCC(=O)NCC(=O)N[C@@H](CO)C(=O)N[C@@H](CCCCNC(=O)CCCC[C@@H]1SC[C@@H]2NC(=O)N[C@@H]21)C(=O)O [CBP-biotin] (H-GWRVSEFGGGSK(Biotin)-OH; N-terminus and C-terminus assumed)
binding to CPMV coat proteins in western blot [2]: bound to the CPMV coat proteins
Kd (CPMV [1]): ~7 nM
half maximal inhibition concentration (IC50) (CPMV [1]; [8]): 0.17 µg
IC50 (CPMV [1]; peptide dilution series competed against constant MPSEF phage for CPMV, OD450 nm, read-out: half maximal inhibition concentration (IC50)): 1140 nM
CPMV binding in ELISA (CPMV [3]): consistent with CPMV binding

FCDGFYACYMDV [AHNP, cyclic peptide derived from monoclonal antibody trastuzumab, HER2 ligand]
Kd (p185HER2/neu): 300 nM

N-GWRVSEF-KKKKKKKKDDDD-FCDGFYACYMDVK/FITC/-C (GWRVSEFKKKKKKKKDDDDFCDGFYACYMDVK; not fully specified (C-terminus, bridges); cysteine pairing not given here; also: FITC label at C-terminal Lys) [CBP-AHNP, dual functional peptide, AHNP fused to the C-terminus of the CBP domain, FITC label]
labeling of CPMV seen by native agarose gel electrophoresis (FITC signal with RNA and protein band) (CPMV [4]): successful labeling

N-KKKKKKKKDDDD-FCDGFYACYMDVK/FITC/-C (KKKKKKKKDDDDFCDGFYACYMDVK; not fully specified (C-terminus, bridges); cysteine pairing not given here; also: FITC label at C-terminal Lys) [*AHNP, control peptide without the CBP domain, FITC label at C terminus, reference compound]
labeling of CPMV seen by native agarose gel electrophoresis (FITC signal with RNA and protein band) (CPMV [4]): no non-specific interaction

GWRVSEFGGGSK-{FITC′} (not fully specified (residue 12)) [CBP-FITC (N-…/FITC/-C)]
Kd [5]: 700 nM
CBP-FITC peptides per CPMV particle (peptides per CPMV particle) [6]: 6
IC50 [7]: 3340 nM

GWRVSEFGGGSK-biotin (not fully specified (residue 12)) [CBP-biotin (N-…/biotin/-C)]
Kd [5]: 7 nM
IC50 [7]: 1140 nM
